Experimental data published in BindingDB's records for patent US11691963 (Ajax Therapeutics, 2023).

Target: Tyrosine-protein kinase JAK2 [Y1007F,Y1008F] (Homo sapiens, UniProt O60674, Y1007F/Y1008F)
Assay: JAK2 Binding Assay
Protocol: Streptavidin-coated magnetic beads were treated with biotinylated small molecule ligands for 30 minutes at room temperature to generate affinity resins for kinase assays. The liganded beads were blocked with excess biotin and washed with blocking buffer (SeaBlock (Pierce), 1% BSA, 0.05% Tween 20, 1 mmol/L DTT) to remove unbound ligand and to reduce nonspecific phage binding. Binding reactions were assembled by combining kinases, liganded affinity beads, and test compounds in 1× binding buffer (1×PBS, 0.05% Tween 20, 0.1% BSA, 1 mmol/L DTT). Test compound was prepared as 111× stocks in 100% DMSO and directly diluted into the assay wells. All reactions were performed in polypropylene 384-well plates in a final volume of 0.02 mL. The assay plates were incubated at room temperature with shaking for 1 hour and the affinity beads were washed with wash buffer (1×PBS, 0.05% Tween 20). The beads were then re-suspended in elution buffer (1×PBS, 0.05% Tween 20, 0.5 μmol/L non-biotinylated affinity ligand) and incubated at room temperature with shaking for 30 minutes. The kinase concentration in the eluate was measured by qPCR.

Tyrosine-protein kinase JAK2 [Y1007F,Y1008F], sequence (O60674 whole entry Y1007F/Y1008F): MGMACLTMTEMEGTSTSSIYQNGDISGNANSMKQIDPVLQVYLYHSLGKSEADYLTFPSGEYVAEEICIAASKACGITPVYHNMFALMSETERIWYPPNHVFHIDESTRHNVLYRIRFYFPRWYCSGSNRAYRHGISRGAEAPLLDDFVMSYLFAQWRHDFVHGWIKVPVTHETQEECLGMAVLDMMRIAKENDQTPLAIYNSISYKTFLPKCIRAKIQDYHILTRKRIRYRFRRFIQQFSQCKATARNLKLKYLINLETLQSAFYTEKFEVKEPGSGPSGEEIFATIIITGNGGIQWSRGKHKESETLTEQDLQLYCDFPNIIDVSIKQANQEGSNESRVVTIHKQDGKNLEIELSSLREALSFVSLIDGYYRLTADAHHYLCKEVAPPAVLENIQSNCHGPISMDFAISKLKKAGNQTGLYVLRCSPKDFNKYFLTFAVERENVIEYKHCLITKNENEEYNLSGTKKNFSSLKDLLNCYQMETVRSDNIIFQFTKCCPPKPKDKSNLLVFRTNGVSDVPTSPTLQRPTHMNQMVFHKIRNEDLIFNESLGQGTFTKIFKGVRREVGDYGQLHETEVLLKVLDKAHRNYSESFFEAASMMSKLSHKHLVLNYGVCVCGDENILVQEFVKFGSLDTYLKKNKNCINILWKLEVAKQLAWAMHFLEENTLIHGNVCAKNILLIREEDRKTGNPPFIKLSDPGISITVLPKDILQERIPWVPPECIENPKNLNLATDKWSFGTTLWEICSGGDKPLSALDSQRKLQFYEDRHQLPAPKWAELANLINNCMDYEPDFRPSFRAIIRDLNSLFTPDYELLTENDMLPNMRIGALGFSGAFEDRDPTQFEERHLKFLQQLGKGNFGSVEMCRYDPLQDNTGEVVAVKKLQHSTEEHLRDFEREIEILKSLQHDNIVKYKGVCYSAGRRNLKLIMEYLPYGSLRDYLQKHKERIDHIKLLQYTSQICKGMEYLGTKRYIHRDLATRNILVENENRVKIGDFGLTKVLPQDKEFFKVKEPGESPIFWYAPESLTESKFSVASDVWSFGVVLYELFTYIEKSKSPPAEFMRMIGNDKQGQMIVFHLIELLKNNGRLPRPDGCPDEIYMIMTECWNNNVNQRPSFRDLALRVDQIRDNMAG

Compound | Kd [nM]
CC(=O)Nc1cc(Oc2ccc3nc(Nc4cc(C(C)(C)C)n(C[C@H]5C[C@@H](O)C5)n4)n(C)c3c2)ccn1 [US11691963, Example I-28] | < 10
CC(=O)Nc1cc(Oc2ccc3nc(Nc4cc5n(n4)CCCC5(C)C)n(C)c3n2)ccn1 [US11691963, Example I-42] | < 10
CC(=O)Nc1cc(Oc2cnc3nc(Nc4cc(C(C)(C)C)n([C@H]5C[C@H](O)C5)n4)n(C)c3c2)ccn1 [US11691963, Example I-115] | < 10
CC(=O)Nc1cc(Oc2cnc3nc(Nc4cc(C(C)(C)C)n([C@H]5C[C@@H](O)C5)n4)n(C)c3c2)ccn1 [US11691963, Example I-116] | < 10
